Test results published in US20250304700A1, “ANTI-BLOOD DENDRITIC CELL ANTIGEN 2 ANTIBODIES AND USES THEREOF” (Biogen MA Inc., priority 2012, published 2025).
“Also recorded” adds a separate entry of the source.

What was measured:
[1] = tested on: TLR9-induced IFNα production by PBMC; assay: PBMC assay, TLR9-induced IFNα production; format: cell-based, human; settings: 1 or 5 μM CpG-A, 18 hours
Method: PBMCs from heparinized venous blood of healthy donors were isolated by discontinuous gradient centrifugation over Ficoll, washed in PBS and re-suspended in complete culture medium (RPMI with 3% FBS). […] The plates were incubated overnight (18 hours) at 37° C., and the supernatants were collected for evaluation in IFNα ELISA assays (PBL InterferonSource). The assays were performed according to the manufacturer's protocol.
pDCs are the major producers of IFN in response to TLR7 and TLR9 stimulation. pDCs can produce thousand-fold more IFN than any other cell type. […] The plates were incubated overnight (18 hours) at 37° C. and 5% CO2. Supernatants were collected for evaluation in IFNα ELISA assays.

[2] = tested on: TLR9-induced cytokines and chemokines by purified pDCs; assay: ELISA/multiplex of cytokines from CpG-A stimulated purified pDCs; format: cell-based, human
Method: Shown in FIG. 17 are the amounts of secreted IFNα and IL-6 measured from a representative donor of three tested healthy donors.
BDCA2 ligation suppresses the ability of pDCs to produce type I IFNs in response to TLR ligands (see FIG. 16). […] Specifically, pDCs from human healthy donors were isolated using a two-step magnetic bead separation procedure (MACS kit, Miltenyi Biotec). […] The plates containing pDCs were incubated for 18 hours at 37° C. and supernatants collected for use in ELISA or multiplex assays to measure concentrations of inflammatory cytokines and chemokines.

[3] = tested on: TLR9-induced IFNα production in whole blood; assay: Pre-incubation (internalization) before TLR9 stimulation, IFNα in whole blood; format: cell-based, human; settings: up to 9 hours pre-incubation, then 200 μg/mL CpG-A for 18 hours
Method: The following experiment was conducted to ascertain whether BIIB059-mediated receptor internalization affected IFN inhibition. […] At each time point after pre-incubation, cells were challenged with 200 μg/mL CpGA and incubated for an additional 18 hours at 37° C. Supernatants were collected for use in IFNα ELISA assays (PBL InterferonSource). The assays were performed according to the manufacturer's protocol. FIG. 19B is a representative experiment of 3 independent experiments performed. […] In addition, we have previously shown that bivalent binding was necessary for anti-BDCA2 mediated IFN inhibition.
At each time point after pre-incubation, cells were stimulated with 200 μg/mL TLR9 ligand (CpG-A) and incubated for an additional 18 hours at 37° C. Supernatants were collected for use in IFNα ELISA assays (PBL InterferonSource).

[4] = tested on: type I IFN subtype transcription in pDCs; assay: qPCR of type I IFN subtypes in Sm/RNP IC stimulated pDCs; format: cell-based, human; settings: 10 μg/mL BIIB059, 16 hours
Method: Sm/RNP immune complexes (IC) were pre-formed by mixing sm-RNP from calf thymus and anti-RNP antibodies purified from sera of SLE patients for 30 minutes in serum-free medium. pDCs from human healthy donors were isolated using a two-step magnetic bead separation procedure (MACS kit, Miltenyi Biotec). […] The plates containing pDC were incubated for 16 hours at 37° C. and 5% CO2. pDC cells were collected and RNA from pDC was isolated for evaluation in qPCR reaction.

[5] = tested on: TLR9-induced IFNα production; assay: Ex vivo whole blood assay (MxA bioassay) after in vivo dosing; design: species or system cynomolgus monkey
Method: FIG. 58 is a schematic representation of the Cynomolgus Monkey PK/PD Experimental Design. Nine Cynomolgus monkeys completed the intravenous (IV) dose study. […] At each bleeding time point, a whole blood assay was performed where whole blood from the cynomolgus monkeys was diluted 1:4 with complete RPMI 1640 and stimulated with CPG-A to a final concentration of 200 μg/ml in a 96 well round bottom tissue culture plate and incubated at 37° C. 5% CO2 for 18-20 hours. At the end of the culture, the stimulated whole blood was centrifuged to harvest serum. In the MxA bioassay, A549 cells were stimulated with the harvested serum for 19-20 hours at 37° C. 5% CO2 to induce MxA protein. After 20 hours, A549 cells were lysed and a sandwich ELISA was performed to detect concentrations of MxA protein. IFNα levels (units/mL) were back calculated from a standard curve generated by treating A549 cells with increasing doses of rIFNa.
Intravenous and subcutaneous dosing routes were evaluated for their ability to impact IFNα induction, which was measured using the MxA bioassay according to the experimental plan outlined in FIG. 58. TLR9 ligand (CpG-A) induced measurable quantities of IFNα in whole blood cultures across all time points and in all cynomolgus monkeys, while no IFNα was detected in the control PBS-treated cultures (data not shown).
A more comprehensive analysis of the data was performed using two-way mixed effects analysis of variance (ANOVA) to estimate the mean IFNα and the post versus pre differences for each dose group in the IV-study. Data during the first 24 hours following dosing were excluded due to an observed decrease in peripheral blood plasmacytoid dendritic cell percentages. Data for bleeds after day 31 post-dose were excluded from the analysis due to the return of BDCA2 expression observed at this time. For the vehicle dosed group, the geometric mean IFNα was 362 Units/mL (U/mL) pre-dose, and 314 U/mL post-dose; for the 1 mg/kg dosed group, the geometric mean was 399 U/mL pre-dose, and 237 U/mL post-dose; for the 10 mg/kg group, the geometric mean IFNα was 211 U/mL pre-dose, and 102 U/mL post-dose (FIG. 4). The post-pre differences in mean log 10 IFNα were-0.061 (p=0.511) for the Vehicle group, −0.226 (p=0.016) for the 1 mg/kg group, and −0.317 (p=0.004) for the 10 mg/kg group.
For the subcutaneously-dosed cynomolgus monkey cohort, a one-way analysis of variance (ANOVA) with random effects was used to estimate the mean IFNα and the post versus pre differences for the entire group. Data during the first 24 hours following dosing were excluded due to an observed decrease in peripheral blood plasmacytoid dendritic cell percentages. Data for bleeds after day 33 post-dose were excluded from the analysis due to the recovery of BDCA2 expression observed at this time. For the subcutaneously dosed group, the geometric mean IFNα was 1243 U/mL pre-dose and 812 U/mL post-dose, yielding a post/pre ratio of 65%. The post-pre difference in mean log 10 was estimated to be −0.185 (p=0.059) which, after anti-log 10 transformation, corresponds to 10^(−0.185)=65% of the pre-dose geometric mean; the 95% CI of this effect is 41%-102% (FIG. 61).

[6] = 5 μM CPG-A, increasing concentrations of BIIB059

Substance: BIIB059: humanized IgG1 anti-BDCA2 antibody, mature heavy chain SEQ ID NO: 4 and mature light chain SEQ ID NO: 3
- average IC50, inhibition of TLR9-induced IFNα production ([1]; PBMC from SLE patients): 0.03 ± 0.01 µg/mL
- average IC50, inhibition of TLR9-induced IFNα production ([1]; PBMC from healthy donors): 0.04 ± 0.05 µg/mL
- TLR9-induced IFNα, TNFα, IL-6, CCL3, CCL4, CCL5 ([2]; 1 μM CPG-A, 10 μg/mL antibody, 18 hours): potently inhibited
- IFNα production [2, 6]: potently inhibited
- IL-6 production [2, 6]: greatly reduced
- ability to inhibit CPG-A-induced IFNα by pDCs ([2]; BIIB059 compared with 24F4A-Agly): undistinguishable
- effect of pre-incubation on IFNα inhibition [3]: did not affect IFN inhibition; also recorded: did not alter the ability of BIIB059 to inhibit
- transcript level of type I IFN subtypes [4]: inhibited the transcript level of all type I IFN subtypes tested
- IFNα post-dose, of the pre-dose geometric mean ([5]; 0.2 mg/kg SC): 65%
- post-pre difference in mean log 10 IFNα ([5]; 0.2 mg/kg SC): −0.185
- geometric mean IFNα post-dose ([5]; 0.2 mg/kg SC, up to day 33): 812 U/mL
- IFN concentration post-dose compared to pre-dose ([5]; 1 mg/kg IV): 59%
- post-pre difference in mean log 10 IFNα ([5]; 1 mg/kg IV): −0.226
- geometric mean IFNα post-dose ([5]; 1 mg/kg IV, up to day 31): 237 U/mL
- IFN concentration post-dose compared to pre-dose ([5]; 10 mg/kg IV): 48%
- geometric mean IFNα post-dose ([5]; 10 mg/kg IV): 102 U/mL
- post-pre difference in mean log 10 IFNα ([5]; 10 mg/kg IV): −0.317
- TLR9-induced IFN production ex vivo, in words ([5]; dosed in vivo, IV and SC): trend towards inhibited TLR9-induced IFN production
